Key:
Type in all cases: in vivo
Abutilon theophrasti = test: Post-emergence herbicidal action against ABUTH (greenhouse pot test); conditions: visual rating after ca. 3 weeks vs untreated controls (100% = plants dead, 0% = like controls)
Excerpt: (§1) Die folgenden Abkürzungen werden für die in den folgenden Tabellen aufgeführten Kultur- und Schadpflanzen verwendet: ABUTH: Abutilon theophrasti ALOMY: Alopecurus myosuroides AMARE: Amaranthus retroflexus BRSNS: Brassica napus DIGSA: Digitaria sanguinalis ECHCG: Echinochloa crus-galli GLXMA: Glycine max KCHSC: Kochia scoparia LOLRI: Lolium rigidum MATIN: Matricaria inodora ORYZA: Oryza sativa PHPBU: Pharbitis purpurea POLCO: Polygonum convolvulus SETVI: Setaria viridis VERPE: Veronica persica VIOTR: Viola tricolor TRZAS: Triticum aestivum ZEAMX: Zea mays
(§2) Samen von mono- bzw. dikotylen Unkrautpflanzen wurden in Kunststoff- oder Holzfasertöpfen in sandigem Lehmboden ausgelegt, mit Erde abgedeckt und im Gewächshaus unter kontrollierten Wachstumsbedingungen angezogen. 2 bis 3 Wochen nach der Aussaat wurden die Versuchspflanzen im Einblattstadium behandelt. Die in Form von benetzbaren Pulvern (WP) oder als Emulsionskonzentrate (EC) formulierten erfindungsgemäßen Verbindungen wurden dann als wässrige Suspension bzw. Emulsion unter Zusatz von 0,5% Additiv mit einer Wasseraufwandmenge von umgerechnet 600 1/ha auf die grünen Pflanzenteile gesprüht. Nach ca. 3 Wochen Standzeit der Versuchspflanzen im Gewächshaus, unter optimalen Wachstumsbedingungen, wurde die Wirkung der Präparate visuell im Vergleich zu unbehandelten Kontrollen bonitiert. Beispielsweise bedeutet 100% Wirkung = Pflanzen sind abgestorben, 0% Wirkung = wie Kontrollpflanzen.
(§3) In den nachstehenden Tabellen A1 bis A11 sind die Wirkungen ausgewählter Verbindungen der allgemeinen Formel (I) gemäß der Tabelle 1 auf verschiedene Schadpflanzen und einer Aufwandmenge entsprechend 80 g/ha und niedriger, die gemäß zuvor genannter Versuchsvorschrift erhalten wurden, dargestellt. Tabelle A1a: Nachauflaufwirkung bei 5 g/ha gegen ABUTH in %

Lolium rigidum = test: Post-emergence herbicidal action against LOLRI (greenhouse pot test); conditions: 80 g/ha, visual rating after ca. 3 weeks vs untreated controls (100% = plants dead, 0% = like controls)
Excerpt: as §1, §2, §3

Setaria viridis = test: Post-emergence herbicidal action against SETVI (greenhouse pot test)
Excerpt: as §1, §2, §3

Veronica persica = test: Post-emergence herbicidal action against VERPE (greenhouse pot test)
Excerpt: as §1, §2, §3

Amaranthus retroflexus = test: Post-emergence herbicidal action against AMARE (greenhouse pot test); conditions: visual rating after ca. 3 weeks vs untreated controls (100% = plants dead, 0% = like controls)
Excerpt: as §1, §2, §3

Matricaria inodora = test: Post-emergence herbicidal action against MATIN (greenhouse pot test); conditions: for Nachauflaufwirkung gegen MATIN: visual rating after ca. 3 weeks vs untreated controls (100% = plants dead, 0% = like controls); for Nachauflaufwirkung gegen MATIN in %: 80 g/ha
Excerpt: as §1, §2, §3

Triticum aestivum = test: Post-emergence action on crop plants, TRZAS (greenhouse pot test); conditions: crop plant
Excerpt: as §1
as §2, with “Kulturpflanzen” for “Unkrautpflanzen”
as §3, with “B1” for “A1”, “B3” for “A11”, “Kulturpflanzen” for “Schadpflanzen”, “20” for “80”, “B1a:” for “A1a:”, “ZEAMX” for “ABUTH”

Polygonum convolvulus = test: Post-emergence herbicidal action against POLCO (greenhouse pot test)
Excerpt: as §1, §2, §3

Zea mays = test: Post-emergence action on crop plants, ZEAMX (greenhouse pot test); conditions: 5 g/ha, crop plant
Excerpt: as §1
as §2, with “Kulturpflanzen” for “Unkrautpflanzen”
as §3, with “B1” for “A1”, “B3” for “A11”, “Kulturpflanzen” for “Schadpflanzen”, “20” for “80”, “B1a:” for “A1a:”, “ZEAMX” for “ABUTH”

Digitaria sanguinalis = test: Post-emergence herbicidal action against DIGSA (greenhouse pot test); conditions: visual rating after ca. 3 weeks vs untreated controls (100% = plants dead, 0% = like controls)
Excerpt: as §1, §2, §3

Pharbitis purpurea = test: Post-emergence herbicidal action against PHBPU (greenhouse pot test)
Excerpt: as §1, §2, §3

Alopecurus myosuroides = test: Post-emergence herbicidal action against ALOMY (greenhouse pot test); conditions: visual rating after ca. 3 weeks vs untreated controls (100% = plants dead, 0% = like controls)
Excerpt: as §1, §2, §3

Viola tricolor = test: Post-emergence herbicidal action against VIOTR (greenhouse pot test)
Excerpt: as §1, §2, §3

Oryza sativa = test: Post-emergence action on crop plants, ORYZA (greenhouse pot test); conditions: 5 g/ha
Excerpt: as §1
as §2, with “Kulturpflanzen” for “Unkrautpflanzen”
as §3, with “B1” for “A1”, “B3” for “A11”, “Kulturpflanzen” for “Schadpflanzen”, “20” for “80”, “B1a:” for “A1a:”, “ZEAMX” for “ABUTH”

| Compound | Nachauflaufwirkung gegen ABUTH (Abutilon theophrasti; 5 g/ha) | Nachauflaufwirkung gegen ABUTH (Abutilon theophrasti; 20 g/ha) | Nachauflaufwirkung gegen ABUTH (Abutilon theophrasti; 80 g/ha) | Nachauflaufwirkung gegen LOLRI (Lolium rigidum) | Nachauflaufwirkung gegen SETVI in % (Setaria viridis; 5 g/ha) | Nachauflaufwirkung gegen SETVI in % (Setaria viridis; 20 g/ha) | Nachauflaufwirkung gegen SETVI in % (Setaria viridis; 80 g/ha) | Nachauflaufwirkung gegen VERPE in % (Veronica persica; 5 g/ha) | Nachauflaufwirkung gegen VERPE in % (Veronica persica; 20 g/ha) | Nachauflaufwirkung gegen VERPE in % (Veronica persica; 80 g/ha) | Nachauflaufwirkung gegen AMARE (Amaranthus retroflexus; 5 g/ha) | Nachauflaufwirkung gegen AMARE (Amaranthus retroflexus; 20 g/ha) | Nachauflaufwirkung gegen AMARE (Amaranthus retroflexus; 80 g/ha) | Nachauflaufwirkung gegen MATIN (Matricaria inodora; 5 g/ha) | Nachauflaufwirkung gegen MATIN (Matricaria inodora; 20 g/ha) | Nachauflaufwirkung gegen MATIN in % (Matricaria inodora) | Nachauflaufwirkung gegen TRZAS in % (Triticum aestivum; 5 g/ha) | Nachauflaufwirkung gegen TRZAS in % (Triticum aestivum; 20 g/ha) | Nachauflaufwirkung gegen POLCO in % (Polygonum convolvulus; 5 g/ha) | Nachauflaufwirkung gegen POLCO in % (Polygonum convolvulus; 20 g/ha) | other results |
| --- | --- | --- | --- | --- | --- | --- | --- | --- | --- | --- | --- | --- | --- | --- | --- | --- | --- | --- | --- | --- | --- |
| CC(C)=NOC(=O)C(C)(C)OC(=O)c1cc(-n2c(=O)cc(C(F)(F)F)n(C)c2=O)c(F)cc1Cl [I.1-476] | 100% | 100% | 100% | 100% | 100% | 100% | 100% | 100% | 100% | 100% | 100% | 100% | 100% | 100% | 100% | 100% | 10% | 10% | 100% | 100% | Nachauflaufwirkung gegen POLCO in % (Polygonum convolvulus; 80 g/ha): 100%; Nachauflaufwirkung gegen ZEAMX in % (Zea mays): 20%; Nachauflaufwirkung gegen DIGSA (Digitaria sanguinalis; 5 g/ha): 100%; Nachauflaufwirkung gegen DIGSA (Digitaria sanguinalis; 20 g/ha): 100%; Nachauflaufwirkung gegen DIGSA (Digitaria sanguinalis; 80 g/ha): 100%; Nachauflaufwirkung gegen PHBPU in % (Pharbitis purpurea; 5 g/ha): 100%; Nachauflaufwirkung gegen PHBPU in % (Pharbitis purpurea; 20 g/ha): 100%; Nachauflaufwirkung gegen PHBPU in % (Pharbitis purpurea; 80 g/ha): 100%; Nachauflaufwirkung gegen ALOMY (Alopecurus myosuroides; 20 g/ha): 100%; Nachauflaufwirkung gegen ALOMY (Alopecurus myosuroides; 80 g/ha): 100%; Nachauflaufwirkung gegen VIOTR in % (Viola tricolor; 5 g/ha): 100%; Nachauflaufwirkung gegen VIOTR in % (Viola tricolor; 20 g/ha): 100%; Nachauflaufwirkung gegen VIOTR in % (Viola tricolor; 80 g/ha): 100% |
| CCOCCOC(=O)C(C)(C)OC(=O)c1cc(-n2c(=O)cc(C(F)(F)F)n(C)c2=O)c(F)cc1Cl [I.1-2] | 100% | 100% | 100% | 100% | 100% | 100% | 100% | 100% | 100% | 100% | 100% | 100% | 100% | 100% | 100% | 100% | 10% | 20% | 100% | 100% | Nachauflaufwirkung gegen ORYZA in % (Oryza sativa): 0%; Nachauflaufwirkung gegen POLCO in % (Polygonum convolvulus; 80 g/ha): 100%; Nachauflaufwirkung gegen ZEAMX in % (Zea mays): 20%; Nachauflaufwirkung gegen DIGSA (Digitaria sanguinalis; 5 g/ha): 100%; Nachauflaufwirkung gegen DIGSA (Digitaria sanguinalis; 20 g/ha): 100%; Nachauflaufwirkung gegen DIGSA (Digitaria sanguinalis; 80 g/ha): 100%; Nachauflaufwirkung gegen PHBPU in % (Pharbitis purpurea; 5 g/ha): 100%; Nachauflaufwirkung gegen PHBPU in % (Pharbitis purpurea; 20 g/ha): 100%; Nachauflaufwirkung gegen PHBPU in % (Pharbitis purpurea; 80 g/ha): 100%; Nachauflaufwirkung gegen ALOMY (Alopecurus myosuroides; 20 g/ha): 90%; Nachauflaufwirkung gegen ALOMY (Alopecurus myosuroides; 80 g/ha): 100%; Nachauflaufwirkung gegen VIOTR in % (Viola tricolor; 5 g/ha): 100%; Nachauflaufwirkung gegen VIOTR in % (Viola tricolor; 20 g/ha): 100%; Nachauflaufwirkung gegen VIOTR in % (Viola tricolor; 80 g/ha): 100% |

Source: patent EP4230621A1, “SUBSTITUTED N-BENZOIC ACID URACILS, THEIR SALTS AND USE OF SAID COMPOUNDS AS HERBICIDAL AGENTS” (Bayer AG, priority 2022, dated 2023)
